Broadly, the chromatographic logP is a lipophilicity value derived from retention on a column. Higher therefore signals a more lipophilic compound.

Drawing on US6348471B1, “Pyrimidyl oxyphenylacetic acid derivatives” (Bayer Aktiengesellschaft, priority 1997, dated 2002), this text covers chromatographic logP and efficacy for 1 molecule.

The nature of series [1]: logP by HPLC (EEC directive 79/831 Annex V. A8, gradient method). The format is physicochemical.
Experimental: The logP values were determined in accordance with EEC directive 79/831 Annex V. A8 by HPLC (gradient method, acetonitrile/0.1% aqueous phosphoric acid)
The test system of another series is Leptosphaeria nodorum. The experiment in a line: Leptosphaeria nodorum test (wheat)/curative. The settings on record: curative, application rate 125 g/ha, evaluation 10 days after inoculation. It is filed as in vivo. The method, then:
Leptosphaeria nodorum test (wheat)/curative Solvent: 10 parts by weight of N-methyl-pyrrolidone Emulsifier: 0.6 parts by weight of alkylaryl polyglycol ether To produce a suitable preparation of active compound, 1 part by weight of active compound is mixed with the stated amounts of solvent and emulsifier, and the concentrate is diluted with water to the desired concentration. To test for curative activity, young plants are sprayed with a conidia suspension of Leptosphaeria nodorum. […] The plants are placed in a greenhouse at a temperature of approximately 15° C. and a relative atmospheric humidity of approximately 80%.

Another series concerns Pyrenophora teres. The experiment in a line: Pyrenophora teres test (barley)/curative. The format is in vivo. The settings on record: curative, application rate 250 g/ha, evaluation 7 days after inoculation. How it is done:
Pyrenophora teres test (barley)/curative Solvent: 10 parts by weight of N-methyl-pyrrolidone Emulsifier: 0.6 parts by weight of alkylaryl polyglycol ether To produce a suitable preparation of active compound, 1 part by weight of active compound is mixed with the stated amounts of solvent and emulsifier, and the concentrate is diluted with water to the desired concentration. To test for curative activity, young plants are sprayed with a conidia suspension of Pyrenophora teres. The plants remain in an incubation cabin at 20° C. and 100% relative atmospheric humidity for 48 hours. The plants are subsequently sprayed with the preparation of active compound at the stated application rate. The plants are placed in a greenhouse at a temperature of approximately 20° C. and a relative atmospheric humidity of approximately 80%.

For `CNC(=O)C(=NOC)c1ccccc1Oc1nccc(OC(C)C)n1` [Example 1, 2-[2-(4-isopropoxypyrimidin-2-yloxy)-phenyl]-2-methoxyimino-N-methylacetamide], in series [1], the chromatographic logP worked out at 2.2. Also, the figures for the efficacy entry in the series with Leptosphaeria nodorum and with Pyrenophora teres were “more than 60%” and 70%, respectively.
